# Laboratory results reported in US20120149715A1, “COMPOUNDS AND METHODS FOR THE TREATMENT OF VIRAL INFECTIONS” (priority 2010, published 2012).
# System: A/Vietnam/1194/04 H5N1 virus
# Parameters: species or system BALB/c mice
# Details: mouse, in vivo
substance,measurement,setting,value
Nucleozin,animals that survived for more than 21 days,,90%
same,survival rate after inoculation compared with untreated controls,ip,significantly higher survival rate
